One may read the melting point as the temperature, or range, at which the solid turns liquid.

Where a name gives a salt, the structure may show the parent alone. Some results are limits rather than exact numbers.

One data set concerns the target T1, LPL (lipoprotein lipase) (Mus musculus, UniProt P11152).
T1 construct: endogenous in cells; host or cells: C2C12 cells, differentiated
T1 sequence (P11152 28-474): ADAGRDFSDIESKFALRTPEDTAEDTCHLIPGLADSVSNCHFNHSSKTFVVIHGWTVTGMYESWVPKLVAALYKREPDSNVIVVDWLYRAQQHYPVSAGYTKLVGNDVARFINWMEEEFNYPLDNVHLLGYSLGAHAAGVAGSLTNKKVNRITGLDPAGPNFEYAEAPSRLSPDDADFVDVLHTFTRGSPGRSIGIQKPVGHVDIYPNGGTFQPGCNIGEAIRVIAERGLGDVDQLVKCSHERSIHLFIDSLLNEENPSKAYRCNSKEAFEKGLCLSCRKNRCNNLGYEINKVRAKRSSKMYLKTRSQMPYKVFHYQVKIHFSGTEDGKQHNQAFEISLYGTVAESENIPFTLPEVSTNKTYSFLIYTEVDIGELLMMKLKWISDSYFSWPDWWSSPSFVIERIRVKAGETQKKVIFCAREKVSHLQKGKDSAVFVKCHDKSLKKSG
In words: Confirmation test of LPL activation effect in mouse skeletal muscle cells (C2C12 cells). In kind it is cell-based. Conditions: 8 hours exposure, vs control group. How it is done: Human skeletal muscle cells (human skeletal muscle myoblasts) or mouse skeletal muscle cells (C2C12 cells) that were seeded onto plates, cultured, and differentiated were exposed to a 0.3% dimethyl sulfoxide-containing culture medium in which the compound of the present invention was dissolved (concentration: 10 μM or 30 μM). The medium was removed 8 hours after exposure, 10 mM of Tris-HCl buffer (150 mM NaCl, 10 μ/mL; containing heparin sodium) was added to the cells, and the cells were incubated at 37° C. in the presence of 5% CO2 for 10 minutes. LPL activity in the supernatant was measured using an LPL activity assay kit (made by Roar Biomedical Inc.). LPL activity was evaluated based on the increase in fluorescence intensity 10 to 70 minutes after mixing the supernatant with the LPL substrate. The mean value of the increase in fluorescence intensity of the cells exposed to a 0.3% dimethyl sulfoxide-containing culture medium […] was used as mean value of the control group. Note that the compounds of Examples 18, 19, 32, 45 and 57 were tested using human skeletal muscle cells, and other compounds were tested using mouse skeletal muscle cells. The rate of increase (%) was calculated from the measured values of LPL activity in the control group and the experimental group, according to the following formula. Rate of increase in LPL activity (%)=[(mean value of the experimental group)−(mean value of the control group)]/(mean value of the control group)×100

For the molecule `COc1cccc(-c2nc(-c3ccc(OCc4ccc(Cl)cc4)cc3OC)c[nH]2)c1.Cl`, the melting point was in the range of 256 to 258 °C.

`COc1cc(OCc2ccc(Cl)cc2)ccc1-c1c[nH]c(-c2cccc(C)c2)n1.Cl` showed a melting point of 217 to 220 °C.

As for `COc1cc(OCc2ccc(C#N)cc2)ccc1-c1c[nH]c(-c2cccc(C)c2)n1.Cl`, the melting point was 243 to 246 °C.

The molecule `COc1cc(OCc2ccc(C#N)cc2)ccc1-c1c[nH]c(-c2cc(Cl)cc(Cl)c2)n1.Cl` registered a melting point of over 250 °C.

In turn, `COc1cc(OCc2ccccc2)ccc1-c1c[nH]c(-c2cccc(C)c2)n1.Cl` registered a melting point of 194 to 196 °C.

`COc1cc(OCc2ccc(Cl)cc2F)ccc1-c1c[nH]c(-c2ccc(F)c(F)c2)n1.Cl` yielded a melting point of 251 to 255 °C.

Take `COc1cc(OCc2ccc(Cl)cc2F)ccc1-c1c[nH]c(-c2ccc(Cl)c(Cl)c2)n1.Cl`: the melting point was 254 to 258 °C.

`COc1cc(OCc2ccccc2)ccc1-c1c[nH]c(-c2cccs2)n1.Cl` returned a melting point of 139 to 142 °C.

On to `CCOC(=O)c1ccc(-c2nc(-c3ccc(OCc4ccccc4)c(OC)c3)c[nH]2)cc1.Cl`, for which the melting point was in the range of 211 to 213 °C.

The molecule `COc1cc(-c2c[nH]c(-c3ccc(C(=O)O)cc3)n2)ccc1OCc1ccccc1.Cl` registered a melting point of 241 to 243 °C.

`COc1cc(-c2c[nH]c(-c3cccc(F)c3)n2)ccc1OCc1ccc(Br)cc1F.Cl` came in with a melting point of 244 to 247 °C.

For `COc1cc(OCc2ccc(Br)cc2F)ccc1-c1c[nH]c(-c2cccc(F)c2)n1.Cl`, the melting point was 240 to 245 °C.

Molecule `COc1cc(OCc2ccc(Cl)cc2)ccc1-c1c[nH]c(-c2ccc(C)cc2)n1.Cl` came in with a melting point of 241 to 244 °C.

Regarding `COc1cc(-c2c[nH]c(-c3ccc(C(F)(F)F)cc3)n2)ccc1OCc1ccc(Br)cc1F` (as salt: hydrochloride) [Example 1, 4-[4-(4-bromo-2-fluorobenzyloxy)-3-methoxyphenyl]-2-[4-(trifluoromethyl)phenyl]-1H-imidazole hydrochloride], the melting point was in the range of 174 to 175 °C.

Consider `COc1cc(-c2c[nH]c(-c3ccc(C(F)(F)F)cc3)n2)ccc1OCc1ccc(Br)cc1F` [Example 1, 4-[4-(4-bromo-2-fluorobenzyloxy)-3-methoxyphenyl]-2-[4-(trifluoromethyl)phenyl]-1H-imidazole hydrochloride], for which the “Rate of increase in LPL activity” value on LPL (lipoprotein lipase) (amount of addition 10 μM) turned out to be 64%; on LPL (lipoprotein lipase) (amount of addition 30 μM), 360%.

`COc1cc(-c2c[nH]c(-c3ccccc3)n2)ccc1OCc1ccc(Cl)cc1` [Example 2] showed a melting point of 87 to 89 °C. In addition, the “Rate of increase in LPL activity” value at LPL (lipoprotein lipase) (amount of addition 10 μM) was 13%. Moreover, the “Rate of increase in LPL activity” value on LPL (lipoprotein lipase) (amount of addition 30 μM) came to 38%.

`COc1cc(-c2c[nH]c(-c3ccccc3)n2)ccc1OCc1ccc(Br)cc1F.Cl` [Example 3] showed a melting point of 224 to 226 °C. The “Rate of increase in LPL activity” value at LPL (lipoprotein lipase) (amount of addition 10 μM) turned out to be 43%. Besides, the “Rate of increase in LPL activity” value on LPL (lipoprotein lipase) (amount of addition 30 μM) was determined as 62%.

`COc1cc(-c2c[nH]c(-c3ccc(Cl)cc3)n2)ccc1OCc1ccccc1` [Example 4]: the melting point fell in the range of 228 to 229 °C. The “Rate of increase in LPL activity” value at LPL (lipoprotein lipase) (amount of addition 10 μM) was determined as 31%. Further, on LPL (lipoprotein lipase) (amount of addition 30 μM), the “Rate of increase in LPL activity” value came to 45%.

In turn, `COc1cc(-c2c[nH]c(-c3ccc(C)cc3)n2)ccc1OCc1ccccc1.Cl` [Example 5] registered a melting point of 244 to 245 °C. At LPL (lipoprotein lipase) (amount of addition 10 μM), the “Rate of increase in LPL activity” value came out at 14%. Moreover, on LPL (lipoprotein lipase) (amount of addition 30 μM), the “Rate of increase in LPL activity” value came out at 42%.

With `COc1cc(-c2cn(C)c(-c3ccc(C(F)(F)F)cc3)n2)ccc1OCc1ccccc1` [Example 6], the melting point was in the range of 138 to 139 °C.

Consider `COc1cc(OCc2ccccc2)ccc1-c1c[nH]c(-c2ccccc2)n1.Cl` [Example 7], for which the melting point was in the range of 229 to 230 °C. Besides, the “Rate of increase in LPL activity” value at LPL (lipoprotein lipase) (amount of addition 10 μM) was determined as 69%. On LPL (lipoprotein lipase) (amount of addition 30 μM), the “Rate of increase in LPL activity” value stood at 197%.

On to `COc1cc(-c2cn(C)c(-c3ccccc3)n2)ccc1OCc1ccccc1` [Example 8], for which the melting point lay within 146 to 147 °C.

In turn, `COc1cc(OCc2ccc(C#N)cc2)ccc1-c1c[nH]c(-c2ccccc2)n1` [Example 12] showed a melting point of 99 to 103 °C.

`COc1cc(-c2cnc(-c3cccs3)[nH]2)ccc1OCc1ccccc1` [Example 14] gave a melting point of 178 to 181 °C.

`COc1cc(OCc2ccc(C#N)cc2)ccc1-c1c[nH]c(-c2cccs2)n1` [Example 21]: the melting point was 193 to 196 °C.

As to `COc1cc(OCc2ccc(Cl)cc2)ccc1-c1c[nH]c(-c2cccs2)n1` [Example 22], the melting point was 107 to 109 °C.

Molecule `COc1cc(-c2c[nH]c(-c3ccsc3)n2)ccc1OCc1ccccc1` [Example 25] came in with a melting point of 132 to 135 °C.

Molecule `COc1ccc(-c2nc(-c3ccc(OCc4ccccc4)c(OC)c3)c[nH]2)cc1` [Example 27] had a melting point of 146 to 148 °C.

With `COc1cc(-c2c[nH]c(C(C)C)n2)ccc1OCc1ccccc1` [Example 29], the melting point was in the range of 148 to 152 °C.

Molecule `COc1cc(-c2nc(-c3ccc(C(F)(F)F)cc3)[nH]c2C)ccc1OCc1ccccc1` [Example 34] displayed a melting point of 160 to 165 °C.

For the molecule `COc1cc(-c2c[nH]c(C(C)C)n2)ccc1OCc1ccc(Cl)cc1` [Example 35], the melting point was in the range of 126 to 128 °C.

Consider `COc1cc(-c2c[nH]c(C)n2)ccc1OCc1ccccc1` [Example 40], for which the melting point was 159 to 163 °C.

`COc1cc(-c2c[nH]c(-c3ccc(C(F)(F)F)cc3)n2)ccc1O` [Example 41]: the melting point fell in the range of 197 to 198 °C.

On to `COc1cc(-c2c[nH]c(-c3ccc(F)cc3)n2)ccc1O` [Example 44], for which the melting point is 116 to 123 °C.

Molecule `COc1cc(OCc2ccc(C#N)cc2)ccc1-c1c[nH]c(-c2cccc(F)c2)n1` [Example 60] showed a melting point of 257 to 260 °C.

In the case of `COc1cc(-c2c[nH]c(-c3ccccc3)n2)ccc1OCc1ccc(C#N)cc1` [Example 63], the melting point lay in the range of 193 to 196 °C.

`COc1cc(-c2c[nH]c(-c3cccs3)n2)ccc1OCc1ccc(C#N)cc1` [Example 64] returned a melting point of 192 to 193 °C.

Take `COc1cc(OCc2ccc(Br)cc2F)ccc1-c1c[nH]c(-c2ccc(F)c(F)c2)n1` [Example 89]: the melting point was 263 to 265 °C.

For the molecule `COc1cc(OCc2ccc(Br)cc2F)ccc1-c1c[nH]c(-c2cccc(C)c2)n1` [Example 95], the melting point was in the range of 120 to 123 °C.

The molecule `COc1cc(O)ccc1-c1c[nH]c(-c2ccccc2)n1` [Example 105] displayed a melting point of 232 to 235 °C.

As to `COc1cc(O)ccc1-c1c[nH]c(-c2ccc(C(F)(F)F)cc2)n1` [Example 106], the melting point was over 250 °C.

In turn, `COc1cc(O)ccc1-c1c[nH]c(-c2ccc(F)cc2)n1` [Example 107] came in with a melting point of over 250 °C.

Turning to `COc1cc(O)ccc1-c1c[nH]c(-c2ccc(C)cc2)n1` [Example 108], the melting point lay in the range of 260 to 262 °C.

`COc1cc(OCc2ccccc2)ccc1-c1c[nH]c(-c2cccc(Cl)c2)n1` [Example 122] came in with a melting point of 142 to 145 °C.

In turn, `COc1cc(OCc2ccccc2)ccc1-c1c[nH]c(-c2cc(Cl)cc(Cl)c2)n1` [Example 125] came in with a melting point of 161 to 163 °C.

As for `COc1cc(OCc2ccccc2)ccc1-c1c[nH]c(-c2ccc(C(C)(C)C)cc2)n1` [Example 129], the melting point lay within 227 to 229 °C.

Molecule `COc1cc(OCc2ccc(Cl)cc2F)ccc1-c1c[nH]c(-c2ccc(Cl)cc2)n1` [Example 131] came in with a melting point of 191 to 194 °C.

Regarding `COc1cc(OCc2ccc(Cl)cc2F)ccc1-c1c[nH]c(-c2cccc(C)c2)n1` [Example 135], the melting point fell in the range of 115 to 120 °C.

Take `COc1cc(OCc2ccc(Cl)cc2F)ccc1-c1c[nH]c(-c2ccc(C)cc2)n1` [Example 136]: the melting point was 152 to 155 °C.

Take `COc1cc(-c2c[nH]c(-c3ccc(F)cc3)n2)ccc1OCc1ccc(C(F)(F)F)cc1` [Example 164]: the results for the “Rate of increase in LPL activity” value at LPL (lipoprotein lipase) (amount of addition 10 μM) and on LPL (lipoprotein lipase) (amount of addition 30 μM) were 4% and 228%, respectively.

On to `COc1cc(-c2c[nH]c(-c3ccc(C(F)(F)F)cc3)n2)ccc1OCc1ccc(C(F)(F)F)cc1` [Example 165], for which the “Rate of increase in LPL activity” value on LPL (lipoprotein lipase) (amount of addition 10 μM) was found to be 38%; at LPL (lipoprotein lipase) (amount of addition 30 μM), 476%.

As to `COc1cc(OCc2ccc(C(F)(F)F)cc2)ccc1-c1c[nH]c(-c2ccc(C(F)(F)F)cc2)n1` [Example 167], the entries for the “Rate of increase in LPL activity” value on LPL (lipoprotein lipase) (amount of addition 10 μM) and on LPL (lipoprotein lipase) (amount of addition 30 μM) were 37% and 104%, respectively.
